Data: paper PMC6158096 (Molecular microbiology, 2018)
Several values for one entry are separate records, joined by “and”; a condition that tells them apart may be missing. Identical values can stand only once. Like-named read-outs stand apart in the source and are kept apart here. Ends that are not written are not given here. * marks the point of attachment. FITC = O=C1OC2(c3ccc(O)cc3Oc3cc(O)ccc32)c2ccc(NC(=S)*)cc21; Ahx = NCCCCCC(=O)O

Columns and labels:
ComR = assay: Fluorescence polarization: FITC-labeled XrpA-N1 direct binding to ComR; design: species or system Streptococcus mutans; settings: 10 nM FITC-labeled XrpA-N1, increasing concentrations of sXIP
[1] = tested on: ComR;sXIP (ComS 11-17) (Streptococcus mutans UA159;Streptococcus mutans); assay: fluorescence polarization
[2] = tested on: ComR;sXIP (ComS 11-17) (Streptococcus mutans UA159;Streptococcus mutans); assay: fluorescence polarization; remark: listed apart in the source
CcpA = assay: Fluorescence polarization: FITC-labeled XrpA-N1 binding to CcpA; design: species or system Streptococcus mutans; settings: 10 nM probe, increasing purified protein, 10 μM sXIP
SppA (SMU.508) = assay: Fluorescence polarization: FITC-labeled XrpA-N1 binding to SppA; design: species or system Streptococcus mutans; settings: 10 nM probe, increasing purified protein, 10 μM sXIP

GLDWWSL [sXIP]
effect on fluorescent XrpA-N1 affinity for ComR (ComR): no effect

ATGGGACATTTATGTCCTGTCCCCCACAGGACATAAATGTCCCAT [PcomX ECom-box stem-loop probe]
Kd [1]: 169 nM and 165 nM | Kd [2]: 147 nM

{FITC-Ahx}-MIQNCISILRHFLITLK [FITC-labeled XrpA-N1]
interaction of FITC-labeled XrpA-N1 with CcpA (CcpA): neither showed any ability to interact | interaction of FITC-labeled XrpA-N1 with SppA (SppA (SMU.508)): neither showed any ability to interact
